Measurements: US6965033B2, “Bisamidate phosphonate prodrugs” (Metabasis Therapeutics, Inc., priority 1999, dated 2005)
Like-named read-outs stand apart in the source and are kept apart here. One block for each compound: values may come before it.

What was measured:
rat hepatocytes = assay: Inhibition of Gluconeogenesis in Rat Hepatocytes; type: cell-based; conditions: isolated rat hepatocytes, 10 mM lactate, 1 mM pyruvate, 1 hour, read-out: IC50 Glucose Production
Experimental: Hepatocytes (75 mg wet weight/ml) were incubated in 1 ml Krebs-bicarbonate buffer containing 10 mM Lactate, 1 mM pyruvate, 1 mg/ml BSA, and test compound concentrations from 1 to 500 μM. […] After 1 hour, an aliquot (0.25 ml) was removed, transferred to an Eppendorf tube and centrifuged. 50 μl of supernatant was then assayed for glucose content using a Sigma Glucose Oxidase kit as per the manufacturer's instructions.

[1] = tested on: Zucker Diabetic Fatty (ZDF rat); assay: Acute Oral Efficacy in the ZDF Rat; type: in vivo; conditions: for Blood Glucose, T6h: 6 h after 60 mg/kg oral; for Blood Glucose, % Change: baseline to 6 h, 60 mg/kg oral; for Blood Glucose, Tbaseline: baseline, 60 mg/kg oral group
Experimental: Methods: ZDF rats were purchased from Genetics Inc (Indianapolis, Ind.) at 8 weeks of age. Animals were maintained under standard vivarium conditions and provided with Purina 5008 chow and water ad libitum. At 10-12 weeks of age, rats with blood glucose levels>500 mg/dl were selected and dosed orally either with vehicle (PEG 400), or prodrug (60 mg/kg). Blood glucose levels were monitored at regular intervals for 6 hours following dosing. Blood samples were taken from tail vein nicks and analyzed by means of a HemoCue glucose analyzer (Hemocue, Mission Viejo, Calif.). Statistical analysis was performed using the Student's t test. Means±standard error of the means are shown.

[2] = tested on: Human Liver Phosphoramidase; assay: Structure Activity Relationship of Human Liver Phosphoramidase (human liver homogenate); type: in vitro ADME; conditions: pH 7.4
Experimental: Human liver, purchased from the Anatomic Gift Foundation (Laurel, Md.), was homogenized in Krebs-bicarbonate buffer and clarified by a slow-speed centrifugation. Prodrug metabolism was evaluated in reaction mixtures containing human liver homogenate (4 mgs protein), 50 mM Tris-HCl, pH 7.4, 10 mM MgCl2, and 10 mM dithiothreitol. At various time intervals over the course of 2 hours, aliquots were removed from the reaction mixtures and deproteinated by addition of methanol to 60%. Following clarification by centrifugation, metabolites were analyzed by reverse phase HPLC with use of a Beckman Ultrasphere ODS column (4.6×150 mm) equipped with an Alltech All-Guard column. The column was equilibrated with 20 mM potassium phosphate, pH 6.2 and eluted with a linear gradient of 0-60% acetonitrile over 20 minutes at a flow rate of 1.5 mL/min and at a temperature of 40° C. UV absorbance was monitored at 300 nm. Most of the prodrugs evaluated were metabolized via a non-rate limiting, esterase-catalyzed step to their monophosphoramidate form within 5 minutes of incubation. The rate of phosphonic acid appearance was therefore essentially a reflection of the rate of the final […] cleavage step. Results for representative prodrugs for which the esterase-catalyzed step was non-rate limiting are shown below: […]

rat liver FBPase = target: T1, rat liver FBPase (Rattus norvegicus, UniProt P19112); assay: Inhibition of Rat Liver FBPase; type: biochemical; conditions: read-out: IC50 (rlFBPase)
T1 construct: made in house; host or cells: E. coli BL21
T1 sequence (P19112 2-363 limits assumed): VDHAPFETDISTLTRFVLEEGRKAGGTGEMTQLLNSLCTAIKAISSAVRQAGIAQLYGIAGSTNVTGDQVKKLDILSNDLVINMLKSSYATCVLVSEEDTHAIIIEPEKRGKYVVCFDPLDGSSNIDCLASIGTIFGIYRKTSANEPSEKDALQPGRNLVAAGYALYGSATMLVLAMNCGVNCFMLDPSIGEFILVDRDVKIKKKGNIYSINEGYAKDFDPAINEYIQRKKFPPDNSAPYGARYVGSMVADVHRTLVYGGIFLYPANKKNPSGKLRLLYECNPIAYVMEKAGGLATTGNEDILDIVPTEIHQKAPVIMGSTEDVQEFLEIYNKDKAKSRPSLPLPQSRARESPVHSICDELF
Experimental: E. coli strain BL21 transformed with a human liver FBPase-encoding plasmid was obtained from Dr. M. R. El-Maghrabi at the State University of New York at Stony Brook. The enzyme was typically purified from 10 liters of recombinant E. coli culture as described (M. Gidh-Jain et al., 1994, The Journal of Biological Chemistry 269, pp 27732-27738). Enzymatic activity was measured spectrophotometrically in reactions that coupled the formation of product (fructose 6-phosphate) to the reduction of dimethylthiazoldiphenyltetrazolium bromide (MTT) via NADP^+ and phenazine methosulfate (PMS), using phosphoglucose isomerase and glucose 6-phosphate dehydrogenase as the coupling enzymes. Reaction mixtures (200 μl) were made up in 96-well microtitre plates, and consisted of 50 mM Tris-HCl, pH 7.4, 100 mM KCl, 5 mM EGTA, 2 mM MgCl2, 0.2 mM NADP, 1 mg/ml BSA, 1 mM MTT, 0.6 mM PMS, 1 unit/ml phosphoglucose isomerase, 2 units/ml glucose 6-phosphate dehydrogenase, and 0.150 mM substrate (fructose 1,6-bisphosphate). Inhibitor concentrations were varied from 0.01 μM to 10 μM. Reactions were started by the addition of 0.002 units of pure hlFBPase, and were monitored for 7 minutes at 590 nm in a Molecular Devices Plate Reader (37° C.).
E. coli strain BL21 transformed with a rat liver FBPase-encoding plasmid was obtained from Dr. M. R. El-Maghrabi at the State University of New York at Stony Brook. Recombinant FBPase was purified as described (El-Maghrabi, M. R., and Pilkis, S. J. (1991) BioChem. Biophys. Res. Commun. 176, 137-144) The enzyme assay was identical to that described above for human liver FBPase.

human liver FBPase = target: T2, human liver FBPase (Homo sapiens, UniProt P09467); assay: Inhibition of Human Liver FBPase; type: biochemical; conditions: read-out: IC50 (hlFBPase)
T2 construct: made in house; host or cells: E. coli BL21
T2 sequence (P09467 2-338 limits assumed): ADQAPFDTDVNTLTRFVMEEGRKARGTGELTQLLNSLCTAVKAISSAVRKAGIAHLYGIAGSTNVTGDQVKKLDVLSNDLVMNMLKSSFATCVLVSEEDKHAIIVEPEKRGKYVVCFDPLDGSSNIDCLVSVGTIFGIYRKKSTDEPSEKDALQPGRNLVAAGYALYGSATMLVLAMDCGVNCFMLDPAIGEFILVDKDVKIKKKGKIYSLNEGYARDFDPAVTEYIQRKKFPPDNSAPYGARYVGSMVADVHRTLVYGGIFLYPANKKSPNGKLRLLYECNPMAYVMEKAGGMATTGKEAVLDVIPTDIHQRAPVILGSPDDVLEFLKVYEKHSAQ
Experimental: […] […] Enzymatic activity was measured spectrophotometrically in reactions that coupled the formation of product (fructose 6-phosphate) to the reduction of dimethylthiazoldiphenyltetrazolium bromide (MTT) via NADP^+ and phenazine methosulfate (PMS), using phosphoglucose isomerase and glucose 6-phosphate dehydrogenase as the coupling enzymes. […] Inhibitor concentrations were varied from 0.01 μM to 10 μM. Reactions were started by the addition of 0.002 units of pure hlFBPase, and were monitored for 7 minutes at 590 nm in a Molecular Devices Plate Reader (37° C.).

Phosphoramidase Activity (Rate of 3.1 or 3.58 production, nmoles/mn/mg liver protein) [2]: 0.029 nmoles/mn/mg liver protein
SMILES: CCOC(=O)[C@H](Cc1ccccc1)NP(=O)(N[C@@H](Cc1ccccc1)C(=O)OCC)c1ccc(-c2nc(N)sc2CC(C)C)o1 [Compound 50.19, 2-Amino-5-isobutyl-4-{2-[5-(N,N′-bis((S)-1-ethoxycarbonyl-2-phenyl)ethyl)phosphonamido]furanyl}thiazole]

IC50 (rat liver FBPase): 2.5 µM
SMILES: CCCc1oc(N)nc1-c1ccc(P(=O)(O)O)o1 [Compound 10.2, 2-Amino-5-propyl-4-[2-(5-phosphono)furanyl]oxazole]
IC50 (rat hepatocytes; Hepatocyte): 16 µM

Phosphoramidase Activity (Rate of 3.1 or 3.58 production, nmoles/mn/mg liver protein) [2]: 0.005 nmoles/mn/mg liver protein
SMILES: CCOC(=O)CN(C)P(=O)(c1ccc(-c2nc(N)sc2CC(C)C)o1)N(C)CC(=O)OCC [Compound 50.10, 2-Amino-5-isobutyl-4-{2-[5-(N,N′-bis(ethoxycarbonylmethyl)-N,N′-dimethylphosphonamido)]furanyl}thiazole]

Phosphoramidase Activity (Rate of 3.1 or 3.58 production, nmoles/mn/mg liver protein) [2]: 0.022 nmoles/mn/mg liver protein
SMILES: COC(=O)[C@H](CC(C)C)NP(=O)(N[C@@H](CC(C)C)C(=O)OC)c1ccc(-c2nc(N)sc2CC(C)C)o1 [Compound 50.12, 2-Amino-5-isobutyl-4-{2-[5-(N,N′-bis((S)-1-methoxycarbonyl-3-methyl)butyl)phosphonamido]furanyl}thiazole]

More lines, now with the values behind:

SMILES: CC(C)Cc1sc(N)nc1-c1ccc(P(=O)(N[C@@H](C)C(=O)OCc2ccccc2)N[C@@H](C)C(=O)OCc2ccccc2)o1 [Compound 50.2, 2-Amino-5-isobutyl-4-[2-(5-N,N-bis(L-alanine acid dibenzyl ester)phosphonoamido)furanyl]thiazole]
IC50 (rat hepatocytes): 2.1 µM
Blood Glucose, T6h [1]: 415 ± 15 mg/dL
Blood Glucose, % Change [1]: −30%
Blood Glucose, Tbaseline [1]: 591 ± 35 mg/dL

SMILES: CCOC(=O)C(C)(C)NP(=O)(NC(C)(C)C(=O)OCC)c1ccc(-c2nc(N)sc2CC(C)C)o1 [Compound 50.9]
IC50 (rat hepatocytes): 2.2 µM
Blood Glucose, T6h [1]: 410 ± 18 mg/dL
Blood Glucose, % Change [1]: −32%
Blood Glucose, Tbaseline [1]: 602 ± 26 mg/dL

SMILES: CCCSc1sc(N)nc1-c1ccc(P(=O)(N[C@@H](CCC)C(=O)OCC)N[C@@H](CCC)C(=O)OCC)o1 [Compound 52.16]
Phosphoramidase Activity (Rate of 3.1 or 3.58 production, nmoles/mn/mg liver protein) [2]: 0.033 nmoles/mn/mg liver protein

SMILES: CCCSc1sc(N)nc1-c1ccc(P(=O)(N[C@@H](COC(C)(C)C)C(=O)OC)N[C@@H](COC(C)(C)C)C(=O)OC)o1 [Compound 52.8, 2-Amino-5-propylthio-4-{2-[5-(N,N′-bis(S)-1-methoxycarbonyl-2-(t-butoxy)ethyl)phosphonamido]furanyl}thiazole]
Phosphoramidase Activity (Rate of 3.1 or 3.58 production, nmoles/mn/mg liver protein) [2]: 0.025 nmoles/mn/mg liver protein

SMILES: CCOC(=O)CNP(=O)(NCC(=O)OCC)c1ccc(-c2nc(N)sc2CC(C)C)o1 [Compound 50.8]
Phosphoramidase Activity (Rate of 3.1 or 3.58 production, nmoles/mn/mg liver protein) [2]: 0.019 nmoles/mn/mg liver protein

SMILES: CCCc1cnc(N)nc1-c1ccc(P(=O)(O)O)o1 [Compound 16.1, 2-amino-5-propyl-4-[2-(5-phosphono)furanyl]pyrimidine]
IC50 (rat liver FBPase): 1.8 µM
melting point: 258 to 259 °C
IC50 (rat hepatocytes; Hepatocyte): 10 µM
IC50 (human liver FBPase): 0.06 µM

SMILES: CCCSc1sc(N)nc1-c1ccc(P(=O)(NC2(C(=O)OCC)CCCC2)NC2(C(=O)OCC)CCCC2)o1 [Compound 52.12, 2-Amino-propylthio-4-[2-{5-(N,N′-bis(1-ethoxycarbonyl)cyclopentyl)phosphonamido}furanyl]thiazole]
Phosphoramidase Activity (Rate of 3.1 or 3.58 production, nmoles/mn/mg liver protein) [2]: 0.032 nmoles/mn/mg liver protein

SMILES: CCCSc1sc(N)nc1-c1ccc(P(=O)(NC(C)C(=O)OC(C)C)NC(C)C(=O)OC(C)C)o1 (stereo not drawn) [Compound 50.20, 2-Amino-5-propylthio-4-{2-[5-(N,N′-(1-methyl-ethoxycarbonyl)ethyl)phosphonamido]furanyl}thiazole]
Phosphoramidase Activity (Rate of 3.1 or 3.58 production, nmoles/mn/mg liver protein) [2]: 0.085 nmoles/mn/mg liver protein

SMILES: Cc1nc(-c2ccc(P(=O)(O)O)o2)c(CC(C)C)s1 [Compound 3.2, 2-Methyl-5-isobutyl-4-[2-(5-phosphono)furanyl]thiazole]
IC50 (rat liver FBPase): 2.5 µM
IC50 (rat hepatocytes; Hepatocyte): 26 µM
